From US9029385B2, “Compositions and methods for treating fibroproliferative disorders” (priority 2007, dated 2015)

Columns and labels:
Type in all cases: in vivo
[1] = test system: bleomycin-induced pulmonary fibrosis; assay: Bleomycin-induced pulmonary fibrosis mouse model: wet lung weight; details: mice, BLM 0.06 U IT; IP daily for 14 days (PTX 10 mg/kg, NAC 20 mg/kg); vs BLM + saline; FIG. 3
Experimental: The composition including pentoxifylline (PTX) and N-acetyl-cysteine (NAC) was assessed in vivo in a mouse model using an experimental design in which a pulmonary fibrosis was generated using bleomycin injury of lung. Bleomycin (BLM) is an effective antineoplastic drug that binds to and damages DNA of tumour cells. However, administration of BLM may result in lung inflammation that can progress to fibrosis. This side effect is due mostly to augmented concentration of reactive oxygen species, decrease in nicotinamide adenine dinucleotide (NAD) and adenosine triphosphate (ATP), and overproduction of mature collagen fibrils. Because BLM-induced lung fibrosis is easily reproduced in different species of mammals, experimental models using the drug have been adopted with the goal of investigating the efficacy of the current invention. […] In this example, the effects of PTX and NAC in combination were studied in comparison to PTX and NAC individually. […] In addition, the lung weights were recorded, photographs of the lungs were taken and tissue samples processed either for biochemical analysis of hydroxyproline (immediately frozen on dry ice) or further morphological analysis (immersed in fixative solution of 10% neutral-buffered formalin).

[2] = test system: bleomycin-induced pulmonary fibrosis; assay: Bleomycin-induced pulmonary fibrosis mouse model: lung histopathology and semi-quantitative lesion score (Masson trichrome); details: mice, fourteen days after intratracheal bleomycin; PTX 10 mg/kg and/or NAC 20 mg/kg IP daily; vs untreated BLM animals
From the text: FIG. 4 illustrates representative photomicrographs of lung histopathology. Normal lung histology is shown in panel A (Group I-saline). […] Collagen is stained with Masson trichrome (light blue color). Original ×10 and ×40 magnifications are shown. FIG. 5 illustrates the effect of pentoxifylline and N-acetyl-cysteine on histological lesions scores of the extent and severity of fibrosis in the experimental groups, as indicated. Data are representative of 5 independent experiments, presented as mean±SD (n=4). The composition including pentoxifylline (PTX) and N-acetyl-cysteine (NAC) was assessed in vivo in a mouse model using an experimental design in which a pulmonary fibrosis was generated using bleomycin injury of lung. Bleomycin (BLM) is an effective antineoplastic drug that binds to and damages DNA of tumour cells. However, administration of BLM may result in lung inflammation that can progress to fibrosis. […] In addition, the lung weights were recorded, photographs of the lungs were taken and tissue samples processed either for biochemical analysis of hydroxyproline (immediately frozen on dry ice) or further morphological analysis (immersed in fixative solution of 10% neutral-buffered formalin).

TNF-α = assay: Bleomycin-induced pulmonary fibrosis mouse model: TNF-α in bronchoalveolar lavage fluid by ELISA; details: mice, day 5 post bleomycin instillation, PTX 10 mg/kg, NAC 20 mg/kg IP daily, FIG. 7
Experimental: Difference of TNF-α at day 5 post bleomycin instillation is shown. Values are means±SD; 5 mice per group. The composition including pentoxifylline (PTX) and N-acetyl-cysteine (NAC) was assessed in vivo in a mouse model using an experimental design in which a pulmonary fibrosis was generated using bleomycin injury of lung. Bleomycin (BLM) is an effective antineoplastic drug that binds to and damages DNA of tumour cells. However, administration of BLM may result in lung inflammation that can progress to fibrosis. This side effect is due mostly to augmented concentration of reactive oxygen species, decrease in nicotinamide adenine dinucleotide (NAD) and adenosine triphosphate (ATP), and overproduction of mature collagen fibrils. Because BLM-induced lung fibrosis is easily reproduced in different species of mammals, experimental models using the drug have been adopted with the goal of investigating the efficacy of the current invention. [table] Mice (under anesthesia) received a single intratracheal dose of either saline (control) or bleomycin (BLM). […] In addition, the lung weights were recorded, photographs of the lungs were taken and tissue samples processed either for biochemical analysis of hydroxyproline (immediately frozen on dry ice) or further morphological analysis (immersed in fixative solution of 10% neutral-buffered formalin). […]

glutathione (GSH) = assay: Bleomycin-induced pulmonary fibrosis mouse model: total glutathione in bronchoalveolar lavage fluid; details: mice, BLM IT; NAC 20 mg/kg IP daily; FIG. 8
Experimental: FIG. 8 illustrates total glutathione levels in bronchoalveolar lavage fluid (BALF) in different experimental groups, as indicated. Data are representative of 4 independent experiments, and presented as mean±SD (n=5). The composition including pentoxifylline (PTX) and N-acetyl-cysteine (NAC) was assessed in vivo in a mouse model using an experimental design in which a pulmonary fibrosis was generated using bleomycin injury of lung. Bleomycin (BLM) is an effective antineoplastic drug that binds to and damages DNA of tumour cells. However, administration of BLM may result in lung inflammation that can progress to fibrosis. This side effect is due mostly to augmented concentration of reactive oxygen species, decrease in nicotinamide adenine dinucleotide (NAD) and adenosine triphosphate (ATP), and overproduction of mature collagen fibrils. Because BLM-induced lung fibrosis is easily reproduced in different species of mammals, experimental models using the drug have been adopted with the goal of investigating the efficacy of the current invention. [table] […] In addition, the lung weights were recorded, photographs of the lungs were taken and tissue samples processed either for biochemical analysis of hydroxyproline (immediately frozen on dry ice) or further morphological analysis (immersed in fixative solution of 10% neutral-buffered formalin). […]

CC(=O)N[C@@H](CS)C(=O)O [NAC, N-acetyl-L-cysteine]
lung weight [1]: lower lung weights were observed but statistical significance was not reached | anti-fibrotic effect seen in lung histology [2]: marked anti-fibrotic effect | BLM-induced increase in TNF-α level in BALF (TNF-α): significantly decreased | total glutathione (GSH) level in BALF (glutathione (GSH)): GSH levels can indeed be supplemented

CC(=O)CCCCn1c(=O)c2c(ncn2C)n(C)c1=O [PTX, pentoxifylline]
lung weight [1]: lower lung weights were observed but statistical significance was not reached | BLM-induced increase in TNF-α level in BALF (TNF-α): significantly decreased
